In patent US9073927B2, “Inhibitors of PI3 kinase” (FUNDACION CENTRO NACIONAL DE INVESTIGACIONES ONCOLOGICAS …, priority 2010, dated 2015):
pEC50, pIC50: −log10 of the molar value. Where two headings read alike, the source gives them in different places. One block for each compound: values may come before it.

Tests used:
[1] = target: T1, PI3K (p110α/p85α) (Homo sapiens, UniProt P42336); experiment: PI3K activity assay (ADP Hunter Plus); type: biochemical
T1 construct: purchased Carna Biosciences 07CBS-0402A
Method: The kinase activity was measured by using the commercial ADP Hunter™ Plus assay available from DiscoveRx (#33-016), which is a homogeneous assay to measure the accumulation of ADP, a universal product of kinase activity. The enzyme, PI3K (p110α/p85α was purchased from Carna Biosciences (#07CBS-0402A). The assay was done following the manufacturer recommendations with slight modifications: Mainly the kinase buffer was replace by 50 mM HEPES, pH 7.5, 3 mM MgCl2, 100 mM NaCl, 1 mM EGTA, 0.04% CHAPS, 2 mM TCEP and 0.01 mg/ml BGG. The PI3K was assayed in a titration experiment to determine the optimal protein concentration for the inhibition assay. To calculate the IC50 of the ETP-compounds, serial 1:5 dilutions of the compounds were added to the enzyme at a fixed concentration (2.5 μg/ml. The enzyme was preincubated with the inhibitor and 30 μM PIP2 substrate (P9763, Sigma) for 5 min and then ATP was added to a final 50 μM concentration. Reaction was carried out for 1 hour at 25° C. Reagent A and B were sequentially added to the wells and plates were incubated for 30 min at 37° C. Fluorescence counts were read in a Victor instrument (Perkin Elmer) with the recommended settings (544 and 580 nm as excitation and emission wavelengths, respectively). Values were normalized against the control activity included for each enzyme (i.e., 100% PI3 kinase activity, without compound). These values were plot against the inhibitor concentration and were fit to a sigmoid dose-response curve by using the Graphad software.

[2] = system: phospho-Ser-473-Akt; experiment: PI3K signalling: AKT phosphorylation inhibition, Western blot analysis; type: cell-based; details: read-out: p-AKT (IC50, WB)
Method: AKT Phosphorylation Inhibition Western Blot Analysis
Subconfluent cells were incubated under different conditions and washed twice with TBS prior to lysis. Lysis buffer was added containing 50 mM Tris HCl, 150 mM NaCl, 1% NP-40, 2 mM Na3VO4, 100 mM NaF, 20 mM Na4P2O7 and protease inhibitor cocktail (Roche Molecular Biochemicals). The proteins were resolved on 10% SDS-PAGE and transferred to nitrocellulose membrane (Schleicher & Schuell, Dassel, Germany). The membranes were incubated overnight at 4° C. with antibodies specific for Akt, phospho-Ser-473-Akt (Cell Signaling Technology) and α-tubulin (Sigma), they were washed and then incubated with IRDye800 conjugated anti-mouse and Alexa Fluor 680 goat anti-rabbit IgG secondary antibodies. The bands were visualized using an Odyssey infrared imaging system (Li-Cor Biosciences). Compounds of the invention have a range of in vitro cell potency activities from about 1 nM to about 10 μM.
Compounds of the examples/invention were tested in the PI3K signalling cellular assay described hereinbefore (Western Blot Analysis), which measures AKT phosphorylation inhibition. Cellular activity of representative compounds, is represented in the table below: […]

[3] = system: A549 cells; experiment: In vitro cell proliferation / combination assay (MTT), A549; type: cell-based; details: for pEC50: Homo sapiens, A549, Lung, Ras G12S; for Synergy / Combination Index (Cl): A549; for Combination Index (Cl): Chou and Talalay
Method: (§1) Cells were seeded at 10000-50000 cells/well in 96 plates for 16 h. On day two, nine serial 1:3 compound dilutions were made in DMSO in a 96 well plate. The compounds were added to duplicate wells in 96-well cell plates a using a FX BECKMAN robot (Beckman Coulter) and incubated at 37° C. with CO2 atmosphere. After 3 days, relative numbers of viable cells were measured by MTT (Sigma) according to manufacturer's instruction and read on EndVision (Perkin Elmer). EC50 values were calculated using Activityl)ase from IDBS. Drugs in combination assays were dosed starting at 4×EC50 concentrations and continuing with serial dilutions 1:2. PI3K inhibitors and chemotherapeutic agents were added simultaneously.
An additional exemplary in vitro cell proliferation assay includes the following steps: • 1. An aliquot of 200 μl of cell culture containing optimal density (between 10^4-5×10^4 cells) (see Examples for cell lines and tumour type) in medium was deposited in each well of a 96-well flat bottom plates. • 2. Control wells were prepared containing medium without cells • 3. The compound was added to the experimental wells and incubated for 3 days. • 4. One quarter volume of MTT reagent with respect to the volume of cell culture medium present in each well was added and incubated 24 h at 37° C. with 5% CO2. • 5. One quarter volume of solubilisation buffer with respect to the volume of cell culture medium present in each well was added and incubated 24 h at 37° C. with 5% CO2. • 6. Formazan salt formed was recorded and reported in graphs as relative growth vs. cells treated only with dmso.
(§2) The individual measured EC50 values against the particular cell of the exemplary compounds and of the chemotherapeutic agent are compared to the combination EC50 value. The combination Index (CI) score is calculated by the Chou and Talalay method (CalcuSyn software, Biosoft). A CI less 0.8 indicates synergy. A CI between 0.8 and 1.2 indicates additivity. A CI greater than 1.2 indicates antagonism.
as §2, with “agents” for “agent”

[4] = system: SKVO3 cells; experiment: In vitro cell proliferation / combination assay (MTT), SKVO3; type: cell-based; details: SKVO3, Ovarian, PIK3CA, p53
Method: as §1, with “PI3K inhibitors and chemotherapeutic agents were added simultaneously.” left out
An additional exemplary in vitro cell proliferation assay includes the following steps: • 1. […] Formazan salt formed was recorded and reported in graphs as relative growth vs. cells treated only with dmso.
The individual measured EC50 values against the particular cell of the exemplary compounds and of the chemotherapeutic agent are compared to the combination EC50 value. The combination Index (CI) score is calculated by the Chou and Talalay method (CalcuSyn software, Biosoft). […]
The individual measured EC50 values against the particular cell of the exemplary compounds and of the chemotherapeutic agents are compared to the combination EC50 value. The combination Index (CI) score is calculated by the Chou and Talalay method (CalcuSyn software, Biosoft). […]

[5] = therapeutic (comp. (B)) alone, read-out: Chemot. EC50
[6] = compound alone, read-out: Compound No. 2-4 (comp. (A)) EC50
[7] = combination of 2-4 with Lapatinib
[8] = combination of 2-4 with PD-0325901

T1 sequence (P42336 whole entry): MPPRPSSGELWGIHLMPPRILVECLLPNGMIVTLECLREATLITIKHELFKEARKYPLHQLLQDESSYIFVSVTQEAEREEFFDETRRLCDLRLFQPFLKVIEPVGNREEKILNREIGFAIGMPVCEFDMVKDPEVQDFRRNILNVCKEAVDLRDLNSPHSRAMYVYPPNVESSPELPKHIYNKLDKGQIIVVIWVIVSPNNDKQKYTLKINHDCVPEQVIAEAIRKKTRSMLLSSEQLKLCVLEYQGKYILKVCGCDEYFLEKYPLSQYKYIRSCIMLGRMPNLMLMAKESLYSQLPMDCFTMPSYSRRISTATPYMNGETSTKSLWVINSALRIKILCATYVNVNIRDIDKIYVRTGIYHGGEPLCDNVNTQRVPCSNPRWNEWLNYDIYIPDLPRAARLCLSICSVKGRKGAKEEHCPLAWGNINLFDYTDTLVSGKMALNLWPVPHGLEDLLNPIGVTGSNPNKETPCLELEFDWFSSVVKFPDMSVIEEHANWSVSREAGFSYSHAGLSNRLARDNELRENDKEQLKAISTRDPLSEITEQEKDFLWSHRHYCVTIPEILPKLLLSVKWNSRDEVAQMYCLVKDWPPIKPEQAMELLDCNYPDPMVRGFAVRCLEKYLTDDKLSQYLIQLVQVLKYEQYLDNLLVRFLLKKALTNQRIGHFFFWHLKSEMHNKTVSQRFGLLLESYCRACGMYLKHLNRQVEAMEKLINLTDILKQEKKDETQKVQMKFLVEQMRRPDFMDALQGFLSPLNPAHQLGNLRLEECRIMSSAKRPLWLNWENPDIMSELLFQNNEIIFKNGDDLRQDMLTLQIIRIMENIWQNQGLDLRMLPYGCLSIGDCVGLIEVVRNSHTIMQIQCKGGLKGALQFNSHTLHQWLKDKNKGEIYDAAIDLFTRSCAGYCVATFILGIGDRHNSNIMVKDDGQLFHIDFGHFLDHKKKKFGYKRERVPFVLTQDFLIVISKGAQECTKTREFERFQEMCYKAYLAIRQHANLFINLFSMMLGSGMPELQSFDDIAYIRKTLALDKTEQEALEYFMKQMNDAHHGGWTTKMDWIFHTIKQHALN
T1 sequence (P27986 whole entry partner): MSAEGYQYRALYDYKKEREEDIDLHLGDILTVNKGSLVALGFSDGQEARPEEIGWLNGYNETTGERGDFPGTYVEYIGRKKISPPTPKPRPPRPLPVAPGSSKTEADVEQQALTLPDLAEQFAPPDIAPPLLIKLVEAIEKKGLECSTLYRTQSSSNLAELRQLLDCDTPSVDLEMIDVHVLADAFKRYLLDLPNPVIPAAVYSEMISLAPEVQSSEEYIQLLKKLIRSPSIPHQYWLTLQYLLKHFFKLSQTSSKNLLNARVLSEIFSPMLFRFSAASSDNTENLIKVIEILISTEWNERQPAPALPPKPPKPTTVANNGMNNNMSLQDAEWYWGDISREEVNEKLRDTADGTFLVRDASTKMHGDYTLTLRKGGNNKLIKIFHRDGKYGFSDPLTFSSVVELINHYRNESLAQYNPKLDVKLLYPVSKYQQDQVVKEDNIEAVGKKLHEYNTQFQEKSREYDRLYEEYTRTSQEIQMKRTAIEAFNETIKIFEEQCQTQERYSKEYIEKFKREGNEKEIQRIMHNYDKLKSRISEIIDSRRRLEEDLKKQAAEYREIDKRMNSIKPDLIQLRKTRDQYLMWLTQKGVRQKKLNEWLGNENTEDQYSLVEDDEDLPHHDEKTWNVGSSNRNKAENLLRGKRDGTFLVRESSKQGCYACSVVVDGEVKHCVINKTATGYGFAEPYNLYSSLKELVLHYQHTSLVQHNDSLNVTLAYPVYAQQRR

Compound: CS(=O)(=O)N1CCN(Cc2nc3c(N4CCOCC4)nc(-c4cccc5[nH]ncc45)cn3n2)CC1 [Compound 2-2]
- pIC50 ([1]; Table 3, read-out: PI3Kα): 6.89

Compound: CS(=O)(=O)N1CCN(Cc2nc3c(N4CCOCC4)nc(-c4cnc(N)nc4)cn3n2)CC1 [Compound 2-3]
- pIC50 [2]: 7.92
- pIC50 ([1]; Table 3, read-out: PI3Kα): 8.52

Compound: Cc1nnc2c(N3CCOCC3)nc(-c3cccc(O)c3)cn12 [Compound 3-6]
- pIC50 ([1]; Table 4, read-out: PI3Kα): 6.02

Compound: O=C(NOC[C@H](O)CO)c1ccc(F)c(F)c1Nc1ccc(I)cc1F [PD-0325901, (R)—N-(2,3-dihydroxypropoxy)-3,4-difluoro-2-(2-fluoro-4-iodophenylamino)benz-amide, reference compound]
- pEC50 [3, 5]: 6.00

Compound: OCc1cc2c(N3CCOCC3)nc(-c3cccc(O)c3)cn2n1 [Compound 3-2]
- pIC50 ([1]; Table 4, read-out: PI3Kα): 6.76

Compound: CS(=O)(=O)N1CCN(Cc2nc3c(N4CCOCC4)nc(-c4cnc(N)nc4)c(Cl)n3n2)CC1 [Compound 2-4]
- pEC50 [4, 6]: 6.00
- pIC50 [2]: 7.19
- pIC50 ([1]; Table 3, read-out: PI3Kα): 8.85
- Synergy [3, 7]: − (a combination index greater than 1.2)
- Combination Index (Cl) [3, 7]: 2.44
- Synergy [3, 8]: +++ (a combination index greater than 0.1 but lower than 0.3)
- Combination Index (Cl) [3, 8]: 0.27
- pEC50 [3, 6]: 6.00

Compound: Cc1nnc2c(N3CCOCC3)nc(-c3cnc(N)nc3)cn12 [Compound 3-5]
- pIC50 ([1]; Table 4, read-out: PI3Kα): 6.78

Continued, values first:

- pIC50 ([1]; read-out: IC50 PI3Kα): 8.22
Compound: CC(C)S(=O)(=O)N1CCN(Cc2cc3c(N4CCOCC4)nc(-c4cnc(N)nc4)cn3n2)CC1 [Compound 3-18, 5-{4-morpholin-4-yl-2-[4-(propane-2-sulfonyl)-piperazin-1-ylmethyl]-pyrazolo[1,5-a]pyrazin-6-yl}-pyrimidin-2-ylamine]

- pIC50 ([1]; Table 4, read-out: PI3Kα): 6.50
Compound: Oc1cccc(-c2cn3cncc3c(N3CCOCC3)n2)c1 [Compound 3-11]

- pEC50 [4, 5]: 5.70
Compound: CC(=O)O[C@@]12CO[C@@H]1C[C@H](O)[C@@]1(C)C(=O)[C@H](O)C3=C(C)[C@@H](OC(=O)[C@H](O)[C@@H](NC(=O)OC(C)(C)C)c4ccccc4)C[C@](O)([C@@H](OC(=O)c4ccccc4)[C@H]21)C3(C)C [Taxotere, (2R,3S)—N-carboxy-3-phenylisoserine, N-tert-butyl ester, 13-ester with 5,20-epoxy-1,2,4,7,10,13-hexahydroxytax-11-en-9-one 4-acetate 2-benzoate, trihydrate, reference compound]

- pEC50 [3, 5]: 6.00
Compound: CS(=O)(=O)CCNCc1ccc(-c2ccc3ncnc(Nc4ccc(OCc5cccc(F)c5)c(Cl)c4)c3c2)o1 [Lapatinib, N-(3-chloro-4-(3-fluorobenzyloxy)phenyl)-6-(5-((2-(methylsulfonyl)ethylamino)-methyl)furan-2-yl)quinazolin-4-amine, reference compound]

- pIC50 ([1]; read-out: IC50 PI3Kα): 7.10
Compound: Nc1ncc(-c2cn3nc(CN4CCOCC4)cc3c(N3CCOCC3)n2)cn1 [Compound 3-17, 5-(4-morpholin-4-yl-2-morpholin-4-ylmethyl-pyrazolo[1,5-a]pyrazin-6-yl)-pyrimidin-2-ylamine]

- pIC50 [2]: 7.85
- pIC50 ([1]; Table 4, read-out: PI3Kα): 8.70
Compound: CS(=O)(=O)N1CCN(Cc2cc3c(N4CCOCC4)nc(-c4cnc(N)nc4)cn3n2)CC1 [Compound 3-10, 5-[2-(4-methanesulfonyl-piperazin-1-ylmethyl)-4-morpholin-4-yl-pyrazolo[1,5-a]pyrazin-6-yl]-pyrimidin-2-ylamine]

- pIC50 [2]: 8.30
- pIC50 ([1]; Table 4, read-out: PI3Kα): 8.52
Compound: CS(=O)(=O)N1CCN(Cc2cn3nc(-c4cnc(N)nc4)nc(N4CCOCC4)c3n2)CC1 [Compound 3-9]

- pIC50 ([1]; Table 4, read-out: PI3Kα): 5.70
Compound: COc1cccc(-c2cn3cncc3c(N3CCOCC3)n2)c1 [Compound 3-12, 6-(3-methoxy-phenyl)-8-morpholin-4-yl-imidazo[1,5-a]pyrazine]

- pIC50 ([1]; read-out: IC50 PI3Kα): 7.89
Compound: CS(=O)(=O)N1CCCN(Cc2cc3c(N4CCOCC4)nc(-c4cnc(N)nc4)cn3n2)CC1 [Compound 3-16, 5-[2-(4-methanesulfonyl-[1,4]diazepan-1-ylmethyl)-4-morpholin-4-yl-pyrazolo[1,5-a]pyrazin-6-yl]-pyrimidin-2-ylamine]

- pIC50 ([1]; read-out: IC50 PI3Kα): 6.97
Compound: COCCN(C)Cc1cc2c(N3CCOCC3)nc(-c3cnc(N)nc3)cn2n1 [Compound 3-14, 5-(2-{[(2-methoxy-ethyl)-methyl-amino]-methyl}-4-morpholin-4-yl-pyrazolo[1,5-a]pyrazin-6-yl)-pyrimidin-2-ylamine]

- pIC50 ([1]; read-out: IC50 PI3Kα): 7.24
Compound: CS(=O)(=O)N1CCC(NCc2cc3c(N4CCOCC4)nc(-c4cnc(N)nc4)cn3n2)CC1 [Compound 3-13, 5-{2-[(1-methanesulfonyl-piperidin-4-ylamino)-methyl]-4-morpholin-4-yl-pyrazolo[1,5-a]pyrazin-6-yl}-pyrimidin-2-ylamine]
